Data: patent publication US5853731A, “Thromboxane A2 Receptor antagonism and antioxidant action of cinnamophilin and its derivatives, their pharmaceutical compositions and uses” (National Science Council, priority 1997, dated 1998)

Legend:
[1] = target: thromboxane receptor; details: Hoet et al., Blood 75, 646-53, 1990; read-out: IC50, thromboxane receptor inhibition; cited from earlier work
[2] = target: thromboxane A2 synthetase; details: Hoet et al., Blood 75, 646-53, 1990; read-out: IC50, thromboxane A2 synthetase inhibition; cited from earlier work
[3] = system: rat thoracic aorta; test: Rat aortic contraction caused by norepinephrine and high potassium (KCl); format: cell-based, Wistar rat; details: 15 min; for K+ contraction (%), Tonic: K+ (80 mM); for norepinephrine contraction (%), Phrase (phasic) / norepinephrine contraction (%), Tonic: norepinephrine 3 μM
Method: A. Rat Aortic Contraction
Wistar rats of either sex weighing 250 g to 300 g were killed by a blow to the head. The thoracic aorta was isolated and excess fat and connective tissue were removed. Vessels were cut into rings of about 5 mm in length and mounted in organ baths containing 5 ml Krebs solution of the following composition (mM): NaCl (118.4), KCl (4.7), CaCl (1.9), MgSO4 (1.2), KH2 PO4 (1.2), NaHCO3 (25.0) and glucose (11.7). The tissue bath solution was maintained at 37° C. and gassed with 95% O2 :5% CO2 mixture. Two stainless steel hooks were inserted into the aortic lumen, one was fixed while the other was connected to a transducer. Aortae were equilibrated in the medium for 90 min with three changes of Krebs solution and maintained under an optimal tension of 1 g before specific experimental protocols were initiated.
Contraction was recorded isometrically via a force-displacement transducer connected to a Grass polygraph. Aortae were allowed to preincubate for 15 minutes with cinnamophilin before generating the cumulative concentration-response curve with each agonist for 15-30 min at 3 min intervals. Results are expressed as a percentage of the maximal control response for each agonist.
Rat aorta ring were preincubated with lignans or DMSO (0.1% control) at
37° C. for 15 min, then the inducer was added.

[4] = system: rabbit platelets; test: Aggregation of washed rabbit platelet suspension induced by AA, PAF, collagen, U-46619, ADP and thrombin; format: cell-based
Method: A. Preparation of aggregation inducing agent
1. Collagen (bovine tendon) in 15 mM aqueous acetic acid was homogenized at 4° C. to form a well dispersed suspension in 1 mg/ml and stocked at -70° C. Before using, it was thawed and well homogenized.
2. PAF was dissolved in CCl4 and stocked at […] Before using, it was diluted with deionized water.
3. […] and sodium arachidonate (AA) were dissolved in deionized water for use.
B. Preparation of platelets
A suspension of platelets was prepared according to the reported method. EDTA (100 mM) and the blood obtained from rabbit's ear vein were mixed in the ratio of 1:4, and immediately centrifuged (120× g) at room temperature for 10 minutes. Platelet-rich plasma was subjected to further centrifuge (500× g) for another 10 minutes. After the plasma was removed, the platelets in the lower layer were suspended in the Tyrode solution containing EDTA (2 mM) and bovine serum albumin (3.5 mg/ml), and subjected to centrifuge (500× g) again for 10 minutes. The platelets obtained were suspended in a Tyrode solution containing no EDTA, and was adjusted to about 4.5×10^8 cells/ml by a cell counter. 1 mM of calcium ion (Ca^2+) was added to the suspension. 30 minutes after the addition, the experiment was conducted. The composition of Tyrode […]: NaCl (136.9), KCl (2.7), NaH2 PO4 (0.4), NaHCO3 (11.9), glucose (11.1).
C. Platelet aggregation and ATP release reaction test
The method reported by Born (J. Physiol. 168, 178, 1963) was used to determine the platelet aggregation by a Lumi-aggregometer (Model 1020, Payton, Canada). Platelet suspension (0.4 ml) was added into a small glass tube coated with silicone, and stirred at 900 rpm with a small magnetic stirrer. Unless otherwise specified, the antagonist was added 1 minute before the inducing agent, and all the reactions were carried out at 37° C. The aggregation was calculated by following formula: […]
aggregation (% )=(light absorption before adding inducing agent-light absorption after adding inducing agent)/(light absorption before adding inducing agent-light absorption of Tyrode solution)×100% […]
| Platelets were precincubated with 1a, 1b, 1c, 1e, 2 or DMSO (0.5%, | control) at 37° C. for 3 min, then the inducer was added.

[5] = system: platelet aggregation, aortic contraction, tracheal contraction; test: Bioassay / pharmacological evaluation (platelet aggregation, rat aortic contraction, guinea-pig tracheal contraction); details: rat aortic and guinea-pig tracheal contraction bioassays
Method: The methods of isolation might be performed using polar organic solvent such as methanol, ethanol and acetone. Solvent of the extract from root parts of Cinnamomum philippinense was evaporated and the residue was suspended in water, and extracted with chloroform or other non-polar organic solvents. Bioassay was performed by using this chloroform layer in platelet aggregation test, rat aortic contraction, and guinea-pig tracheal contraction. Purified bioactive components were obtained through silica gel column, then afforded cinnamophilin (1), two known lignan compounds as (+)-guaiacin (3), meso-dihydroguaiaretic acid (2) and an aromatic acid as vallinic acid.
Compounds II-V wherein R1 represents H, C1-8 alkyl, --OCOR, wherein R2 represents OH, COO--, wherein R represents H, C1-8 alkyl. Preferred substituted alkyl group is 8 carbon number, optical alkyl group is 6 carbon number. Structures of these compounds were elucidated on the basis of their IR, UV, ^1 H-NMR, ^13 C-NMR, Mass spectra as well as the elemental analytical data.

[6] = Antioxidation (absorbance at 500 nm, FeSCN method); details: 20 μM
Excerpt: (Absorbance at 500 nm, using FeSCN method)

[7] = compared with BHA or BHT; background statement; cited from earlier work
[8] = inducer AA (100 μM), conc 20 μM, control 92.1 ± 1.3
[9] = inducer AA (100 μM), conc 50 μM, control 92.1 ± 1.3
[10] = inducer AA (100 μM), conc 100 μM, control 92.1 ± 1.3
[11] = inducer AA (100 μM), conc 200 μM, control 92.1 ± 1.3
[12] = inducer ADP (20 μM), conc 300 μM, control 81.6 ± 3.0
[13] = inducer PAF (2 ng/ml), conc 300 μM, control 91.7 ± 2.0
[14] = inducer U-46619 (1 μM), conc 200 μM, control 89.4 ± 1.2
[15] = inducer collagen (10 μg/ml), conc 50 μM, control 93.6 ± 1.0
[16] = inducer collagen (10 μg/ml), conc 100 μM, control 93.6 ± 1.0
[17] = inducer collagen (10 μg/ml), conc 200 μM, control 93.6 ± 1.0
[18] = inducer thrombin (0.1 U/ml), conc 300 μM, control 94.8 ± 2.0

Row | SMILES | K+ contraction (%), Tonic ([3]; conc 10 μM) [%] | norepinephrine contraction (%), Phrase (phasic) ([3]; conc 10 μM) [%] | norepinephrine contraction (%), Tonic ([3]; conc 10 μM) [%] | Aggregation (%) [4, 8] [%] | Aggregation (%) [4, 9] [%] | Aggregation (%) [4, 10] [%] | Aggregation (%) [4, 11] [%] | Aggregation (%) [4, 12] [%] | Aggregation (%) [4, 13] [%] | Aggregation (%) [4, 14] [%] | Aggregation (%) [4, 15] [%] | Aggregation (%) [4, 16] [%] | Aggregation (%) [4, 17] [%] | Aggregation (%) [4, 18] [%] | further results
1 | O=C(O)CCCCO/N=C(/c1cccnc1)c1cccc(C(F)(F)F)c1 [ridogrel] | – | – | – | – | – | – | – | – | – | – | – | – | – | – | IC50 [1]: 2 µM; IC50 [2]: 0.005 µM
2 | COc1cc(CC(C)C(C)C(O)c2ccc(O)c(OC)c2)ccc1O (stereo not shown) [Compound 7, cinnamophilinol] | 66.8 ± 2.2 | 100 | 113.3 ± 7.5 | 86.3 ± 1.0 | 75.5 ± 6.2 | 10.4 ± 9.0 | 0.0 ± 0.0 | 77.3 ± 4.0 | 79.7 ± 6.6 | 90.4 ± 1.4 | 89.7 ± 3.4 | 75.5 ± 2.4 | 0.0 ± 0.0 | 73.2 ± 6.8 | K+ contraction (%), Tonic ([3]; conc 50 μM): 51.0 ± 4.4%; norepinephrine contraction (%), Phrase (phasic) ([3]; conc 50 μM): 95.5 ± 3.2%; norepinephrine contraction (%), Tonic ([3]; conc 50 μM): 85.3 ± 10.4%
3 | COc1cc(C[C@@H](C)[C@@H](C)Cc2ccc(O)c(OC)c2)ccc1O [Compound 2, meso-dihydroguaiaretic acid, reference compound] | 14.8 ± 2.1 | 111.1 ± 6.2 | 78.4 ± 8.8 | 0.0 ± 0.0 | – | – | – | 67.9 ± 8.4 | 91.7 ± 2.0 | 88.6 ± 3.2 | 79.7 ± 4.7 | 16.4 ± 4.4 | 0.0 ± 0.0 | 85.3 ± 6.6 | K+ contraction (%), Tonic ([3]; conc 1 μM): 74.0 ± 4.1%; K+ contraction (%), Tonic ([3]; conc 3 μM): 36.5 ± 3.2%; K+ contraction (%), Tonic ([3]; conc 5 μM): 25.7 ± 3.9%; bioactivity [5]: has not been observed; Aggregation (%) ([4]; inducer AA (100 μM), conc 5 μM, control 92.1 ± 1.3): 76.0 ± 7.8%; Aggregation (%) ([4]; inducer AA (100 μM), conc 10 μM, control 92.1 ± 1.3): 5.9 ± 5.3%
4 | Cc1c(C)c2c(c(C)c1O)CCC(C)(CCCC(C)CCCC(C)CCCC(C)C)O2 (stereo not drawn) [vitamin E, α-tocopherol, reference compound] | – | – | – | – | – | – | – | – | – | – | – | – | – | – | Absorbance at 500 nm ([6]; induce time 0, control 0.047): 0.026; Absorbance at 500 nm ([6]; induce time 4, control 0.084): 0.069; Absorbance at 500 nm ([6]; induce time 7, control 0.201): 0.083; Absorbance at 500 nm ([6]; induce time 10, control 0.343): 0.108; Absorbance at 500 nm ([6]; induce time 16): 0.176; Absorbance at 500 nm ([6]; induce time 19): 0.226; Absorbance at 500 nm ([6]; induce time 22): 0.297; Absorbance at 500 nm ([6]; induce time 25): 0.487; Absorbance at 500 nm ([6]; induce time 28): 1.024; antioxidative action on fatty oils [7]: lower than BHA (t-butylhydroxyanisole) or BHT (t-butylhydroxy toluene)
5 | COc1cc(CC(C)C(C)C(=O)c2ccc(OC(C)=O)c(OC)c2)ccc1OC(C)=O (stereo not shown) [Compound 5] | 18.4 ± 4.7 | 92.2 ± 13.4 | 64.6 ± 9.1 | 86.3 ± 4.6 | 57.8 ± 2.8 | 0.0 ± 0.0 | – | 60.7 ± 12.0 | 45.2 ± 9.2 | 88.4 ± 4.3 | 93.4 ± 1.2 | 80.6 ± 4.7 | 8.4 ± 7.3 | 94.9 ± 1.0 | –
6 | COc1ccc(CC(C)C(C)C(=O)c2ccc(OC)c(OC)c2)cc1OC (stereo not shown) [Compound 4, dimethylcinnamophilin] | 10.5 | 61.3 ± 2.1 | 48.6 ± 3.3 | 87.8 ± 3.3 | 75.8 ± 10.6 | 37.7 ± 1.6 | 0.0 ± 0.0 | 30.7 ± 13.0 | 0.0 ± 0.0 | 86.5 ± 1.7 | 86.2 ± 4.7 | 80.3 ± 3.6 | 7.5 ± 6.4 | 89.7 ± 3.5 | –
